Patent publication US12606529B2, “Sulfur and amide tropolone inhibitors of nucleotidyl transferases and uses therefor” (Saint Louis University, priority 2019, dated 2026)
Converted amounts (≈) assume the structure as drawn.

Columns and labels:
human RNaseH1 = biological target: T1, human RNaseH1 (Homo sapiens, UniProt O60930); assay: Biochemical inhibition of human RNaseH1 activity; conditions: Table 2 amides; read-out: HuRH1 IC50
T1 sequence (O60930 1-286): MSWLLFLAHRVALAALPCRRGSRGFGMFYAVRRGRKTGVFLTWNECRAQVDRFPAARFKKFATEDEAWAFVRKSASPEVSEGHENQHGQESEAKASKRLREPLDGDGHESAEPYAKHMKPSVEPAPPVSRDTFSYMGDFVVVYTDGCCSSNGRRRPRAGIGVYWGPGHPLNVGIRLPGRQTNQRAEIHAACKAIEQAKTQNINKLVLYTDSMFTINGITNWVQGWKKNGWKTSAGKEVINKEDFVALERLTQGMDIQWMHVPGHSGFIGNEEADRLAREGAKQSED
Experimental: Biochemical inhibition of human RNaseH1 activity. Quantitative inhibition of the human RNaseH1 in the biochemical assays was assessed using a molecular beacon assay as described previously (Edwards et al., 2017). Recombinant human RNaseH 1 (0.3 μg) was incubated with 100 nM RNA:DNA substrate, 50 mM HEPES pH 8.0, 100 mM NaCl, 2 mM Tris(2-carboxyethyl)phosphine hydrochloride (TCEP), 0.05% Tween20, 5 units of RNaseOut, test compounds (0 to 500 μM), and 5% DMSO in a 100 μL reaction volume. The substrate was formed by annealing a complementary RNA oligonucleotide to a hairpin DNA oligonucleotide to hold the hairpin DNA oligonucleotide in an open conformation. The DNA oligonucleotide has a 5′ fluorescein reporter and a 3′ black hole quencher. When the RNA is degraded from the substrate the DNA oligonucleotide closes to form a hairpin structure, decreasing in signal intensity. Reactions were initiated with 5 mM MgCl2 and fluorescence was read using a Synergy HTS multi-mode plate reader at 37° C. Alternatively, the HBV RNaseH version used was MBP-HRHgtCΔ5, a genotype C isolate which lacks the C-terminal 35 amino acids of the HBV RNaseH domain that are predicted to be unstructured. Quantitative inhibition of the human RNaseH1 in biochemical assays was assessed using a FRET-based RNaseH assay under conditions previously reported for an RNaseH molecular beacon assay (Edwards et al., 2017). […] Cleavage of the RNA strand released the fluorescein from quenching, increasing fluorescence. Reactions were monitored for 90 min at 37° C. in a plate reader and initial reaction rates were calculated. Reactions contained escalating concentrations of the compounds.

HSV-1 = assay: Anti-HSV-1 replication assay (Vero cells, plaque titer); format: cell-based, herpes simplex virus 1; conditions: for log reduction at 5 µM: compound at 5 μM, read-out: HSV-1 suppression 5 μM
[1] = test system: C. neoformans var. grubii, KN99; assay: C. neoformans growth inhibition assay (limiting dilution); format: cell-based, Cryptococcus neoformans; conditions: Cryptococcus neoformans, 48 h, Table 2 amides; 48 h, 35° C., tested 0.19 to 50 μM; read-out: C. neoformans MIC80
Experimental: Cell types used for C. neoformans studies. All inhibition assays were performed with C. neoformans var. grubii, KN99 (serotype A, MAT). Two clinical strains of C. neoformans var. grubii, serotype A, were provided by Tamara Doering and Andre Spec. […] Cells were diluted to OD650 0.001 in YNB-02 02 (0.67% yeast nitrogen base, 0.2% dextrose, pH 7.0 with 50 mM MOPs)+1% DMSO prior to addition to the plates for the inhibition assays.
C. neoformans growth inhibition assays. Compounds were tested in a limiting dilution assay with a starting optical density (at 650 nm) of 0.001 in YNB-02 plus 1% DMSO. Cells plus compound were incubated in 96-well clear round bottom plates covered with a Breath-easy® membrane without shaking for 48 hours at 35° C. Before measuring cell density, plates were shaken on a microtiter plate shaker at 900 rpm for 3 minutes to resuspend cells and optical density was measured at 650 nm. […] Each assay was done in triplicate and all values are the average of two or more independent assays. The data are presented as the average cell density as a percent of DMSO-only treated cells. MICs are reported as the minimal concentration needed to inhibit 80% of C. neoformans growth relative to vehicle-treated controls.

in vitro = conditions: human, HepDES19 cells
Experimental: Cells used for toxicity and HBV studies. […] Cells were maintained in Dulbecco's modified Eagle's medium (DMEM)/F12 media supplemented with 10% fetal bovine serum (FBS) and 1% penicillin/streptomycin (P/S) with 1 μg/mL tetracycline. Synchronized expression of HBV pgRNA was induced by removing tetracycline from the culture medium.
Cytotoxicity Assays. Qualitative assessments of cytotoxicity were done visually by inspecting the cells in the primary screening assays. […] The next day the compounds were added at 0.78 to 100 μM in a final concentration of 1% (v/v) DMSO, and the cells were incubated for 24 hours under conditions identical to those employed for the viral replication inhibition assays. Mitochondrial toxicity was measured by incubating the cells with 0.25 mg/mL thiazolyl blue tetrazolium bromide (MTT, SigmaAldrich Chemical Co.), the cultures were incubated for 60 mM, metabolites were solubilized in acidic isopropanol, and absorbance was read at 570 nm. CC50 values were calculated by non-linear curve fitting using GraphPad Prism using the three-parameter variable-response log(inhibitor)-versus-response algorithm with the bottom value set to zero.

[2] = Human alphaherpesvirus 1, Vero, Table 2 amides, values separated by / are repeats

Structure (SMILES)	IC50 (human RNaseH1) [µM]	log reduction at 5 µM (HSV-1; [2])	MIC80 [1] [µM]	CC50 at 24 h (in vitro; CC50 (μM), Table 2 amides, MTT) [µM]	CC50 at 24 h (in vitro; CC50) [µM]	Reduction of HSV-1 titers / suppression of HSV-1 replication at 5 μM (HSV-1; 5 μM, plaque forming units (PFU)/ml)	log reduction at 1 µM (HSV-1; Human alphaherpesvirus 1, Vero, Table 2 amides, compound at 1 μM, values separated by / are repeats, read-out: HSV-1 suppression 1 μM)
Cc1cc(O)c(=O)c(O)cc1C(=O)NCc1ccccc1 [compound 388]	166 ± 104	0.05	9 (≈ 2.57 µg/mL)	19.8 ± 3			
Cc1cc(O)c(=O)c(O)cc1C(=O)Nc1ccccc1 [compound 389]	78.4 ± 47.2	0.43	5.3 (≈ 1.44 µg/mL)	21.2 ± 9.5	> 20		
Cc1cc(O)c(=O)c(O)cc1C(=O)NCc1ccc(-c2ccccc2)cc1 [compound 539]	50 ± 9	5.3	4.5 (≈ 1.63 µg/mL)	3.6 ± 1.8	1.8	more than 5 log10	0.52
Cc1cc(O)c(=O)c(O)cc1C(=O)NCCCc1ccccc1 [compound 708]	267 ± 11.7	0.04	18 (≈ 5.64 µg/mL)	22.6 ± 12.8			
COC(=O)[C@@H](NC(=O)c1cc(O)c(=O)c(O)cc1C)C(C)C [compound 793]	178 ± 46.6		18 (≈ 5.57 µg/mL)	18.3 ± 9.8			
COC(=O)[C@H](CC(C)C)NC(=O)c1cc(O)c(=O)c(O)cc1C [compound 794]	48.1 ± 15.4		9 (≈ 2.91 µg/mL)	14.7 ± 9.6			
COC(=O)[C@H](Cc1ccccc1)NC(=O)c1cc(O)c(=O)c(O)cc1C [compound 795]	43.5 ± 14.8		9 (≈ 3.22 µg/mL)	12.7 ± 5.5			
COC(=O)[C@H](Cc1c[nH]c2ccccc12)NC(=O)c1cc(O)c(=O)c(O)cc1C [compound 797]	44 ± 27.1		9 (≈ 3.57 µg/mL)	13.9 ± 13.3			
Cc1cc(O)c(=O)c(O)cc1C(=O)NCc1cccs1 [compound 801]	833 ± 289		50 (≈ 14.6 µg/mL)	61.1 ± 22.8			
CCS(=O)(=O)N1CCN(C(=O)c2cc(O)c(=O)c(O)cc2C)CC1 [compound 802]	76.5 ± 46.9		50 (≈ 17.8 µg/mL)	27.1 ± 31.2			
Cc1cc(O)c(=O)c(O)cc1C(=O)N1CCN(c2oc(-c3ccco3)nc2C#N)CC1 [compound 803]	36.3 ± 4		32 (≈ 13.5 µg/mL)	23.7 ± 22.9			
Cc1cc(O)c(=O)c(O)cc1C(=O)NCC1CCN(C(=O)OC(C)(C)C)CC1 [compound 805]	77 ± 30.8		9 (≈ 3.53 µg/mL)	19.5 ± 10.8			
COc1ccc(CNC(=O)c2cc(O)c(=O)c(O)cc2C)cc1 [compound 806]	61.4 ± 15.9		4.6 (≈ 1.45 µg/mL)	15.9 ± 6.9			
Cc1cc(O)c(=O)c(O)cc1C(=O)NCC1COC(C)(C)O1 (stereo not shown) [compound 808]	71.9 ± 12		9 (≈ 2.78 µg/mL)	14.9 ± 8.6			
Cc1cc(O)c(=O)c(O)cc1C(=O)NCC1CCCCN1C(=O)OC(C)(C)C (stereo not shown) [compound 810]	41.5 ± 7.2		4.5 (≈ 1.77 µg/mL)	10.9 ± 11.2			
Cc1cc(O)c(=O)c(O)cc1C(=O)N1CCN(S(=O)(=O)c2ccsc2)CC1 [compound 917]	30.7 ± 15.8		50 (≈ 20.5 µg/mL)	8.9 ± 4.1			
Cc1cc(O)c(=O)c(O)cc1C(=O)N1CCN(c2ccc(C(F)(F)F)cc2)CC1 [compound 919]			2.5 (≈ 1.02 µg/mL)	5.5 ± 1.9			
Cc1cc(O)c(=O)c(O)cc1C(=O)N1CCN(C(=O)c2ccc([N+](=O)[O-])c3nonc23)CC1 [compound 920]	40.2 ± 39.7		50 (≈ 22.8 µg/mL)	19.3 ± 14.6			
Cc1cc(O)c(=O)c(O)cc1C(=O)NCC1CCOC1 (stereo not shown) [compound 1018]	129 ± 123		50 (≈ 14 µg/mL)	41.2 ± 33.4			
Cc1cc(O)c(=O)c(O)cc1C(=O)NCc1ccc(N2CCCC2)cc1 [compound 1019]	383 ± 471		4.5 (≈ 1.59 µg/mL)	10.7 ± 6			
Cc1cc(O)c(=O)c(O)cc1C(=O)N1CCN(C(=O)N(c2ccccc2)c2ccccc2)CC1 [compound 1020]	12.9 ± 7.3		8 (≈ 3.68 µg/mL)	7.8 ± 3.7			
CCCCNC(=O)c1cc(O)c(=O)c(O)cc1C [compound 1039]	219 ± 87.6		12 (≈ 3.02 µg/mL)	8.7 ± 2.8			
